Measurements published in patent US20230102554A1 (GB002, INC., priority 2019, published 2023).

Assays:
[1] = biological target: T1, Human PDGFRα, cytoplasmic domain (GST-PDGFRα) (Homo sapiens, UniProt P16234); assay: Human PDGFRα biochemical inhibition assay (off-chip Mobility Shift Assay)
T1 construct: made in house

[2] = biological target: T2, Human PDGFRβ, cytoplasmic domain (GST-PDGFRβ) (Homo sapiens, UniProt P09619); assay: Human PDGFRβ biochemical inhibition assay (off-chip Mobility Shift Assay)
T2 construct: made in house
Outline: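 GST-tagged cytoplasmic domain (aa 557-1106) from baculovirus was incubated 1 h at room temperature with compound, CSKtide, ATP at Km and Mg²⁺ in HEPES buffer, pH 7.5. Phosphorylated and unphosphorylated peptide were separated by off-chip mobility shift, and the product ratio P/(P+S) gave percent inhibition.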

T2 sequence (P09619 with tags, fused parts or gaps): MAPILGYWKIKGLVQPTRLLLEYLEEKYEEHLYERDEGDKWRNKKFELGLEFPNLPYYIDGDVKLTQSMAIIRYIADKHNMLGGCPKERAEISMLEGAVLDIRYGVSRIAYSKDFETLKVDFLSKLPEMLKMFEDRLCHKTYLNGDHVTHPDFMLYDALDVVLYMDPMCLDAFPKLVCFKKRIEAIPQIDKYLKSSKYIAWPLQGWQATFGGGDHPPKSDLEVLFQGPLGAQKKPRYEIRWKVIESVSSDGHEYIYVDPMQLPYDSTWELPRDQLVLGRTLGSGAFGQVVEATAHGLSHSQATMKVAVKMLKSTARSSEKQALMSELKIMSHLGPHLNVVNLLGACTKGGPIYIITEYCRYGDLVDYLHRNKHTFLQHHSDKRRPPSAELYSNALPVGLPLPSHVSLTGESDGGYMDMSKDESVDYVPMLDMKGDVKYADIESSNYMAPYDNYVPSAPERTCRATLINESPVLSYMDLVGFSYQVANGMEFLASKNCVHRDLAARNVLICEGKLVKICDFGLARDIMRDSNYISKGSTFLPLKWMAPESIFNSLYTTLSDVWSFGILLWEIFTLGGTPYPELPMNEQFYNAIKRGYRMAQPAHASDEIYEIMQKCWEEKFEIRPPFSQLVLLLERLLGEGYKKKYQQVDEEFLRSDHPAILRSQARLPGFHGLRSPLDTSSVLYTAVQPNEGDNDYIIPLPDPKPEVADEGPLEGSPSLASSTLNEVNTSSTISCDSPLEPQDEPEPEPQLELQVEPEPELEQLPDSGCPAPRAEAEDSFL
T1 sequence (P16234 550-1089 T674I): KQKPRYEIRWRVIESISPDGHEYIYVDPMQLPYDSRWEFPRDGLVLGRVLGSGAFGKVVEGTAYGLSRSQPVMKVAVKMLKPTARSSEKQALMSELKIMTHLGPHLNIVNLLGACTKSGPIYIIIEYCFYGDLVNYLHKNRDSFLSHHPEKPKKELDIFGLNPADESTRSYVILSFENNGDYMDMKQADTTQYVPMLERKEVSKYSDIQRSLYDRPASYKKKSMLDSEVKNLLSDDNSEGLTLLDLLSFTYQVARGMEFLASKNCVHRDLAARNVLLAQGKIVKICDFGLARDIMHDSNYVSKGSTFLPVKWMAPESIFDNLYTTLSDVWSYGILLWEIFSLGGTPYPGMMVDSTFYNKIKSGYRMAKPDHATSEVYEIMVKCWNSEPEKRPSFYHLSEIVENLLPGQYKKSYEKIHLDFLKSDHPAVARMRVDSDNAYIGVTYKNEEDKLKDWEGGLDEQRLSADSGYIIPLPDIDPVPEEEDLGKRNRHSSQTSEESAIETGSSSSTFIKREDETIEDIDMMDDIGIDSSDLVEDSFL

Row | Structure (SMILES) | IC50 [1] | IC50 [2]
1 | CCn1cc2ncc(N[C@@H](C)c3cccc(NC(=O)c4cnn(C5CC5)c4)c3)nc2n1 [Compound 299, (S)-1-cyclopropyl-N-(3-(1-((2-ethyl-2H-pyrazolo[3,4-b]pyrazin-6-yl)amino)ethyl)phenyl)-1H-pyrazole-4-carboxamide] | < 300 nM | 300 to 1000 nM
2 | Cc1cc(C(=O)Nc2cccc([C@H](C)Nc3cnc4cnn(C)c4n3)c2)cnc1N1CCN(C)CC1 [Compound 195, (S)-5-methyl-N-(3-(1-((1-methyl-1H-pyrazolo[3,4-b]pyrazin-6-yl)amino)ethyl)phenyl)-6-(4-methylpiperazin-1-yl)nicotinamide] | < 300 nM | < 300 nM
3 | Cc1cncc(C(=O)Nc2cccc([C@H](C)Nc3cnc4cn(CC5CC5)nc4n3)c2)c1 [Compound 275, (S)-N-(3-(1-((2-(cyclopropylmethyl)-2H-pyrazolo[3,4-b]pyrazin-6-yl)amino)ethyl)phenyl)-5-methylnicotinamide] | < 300 nM | < 300 nM
4 | Cc1cncc(C(=O)Nc2cccc([C@H](C)Nc3cnc4ccsc4c3)c2)c1 [Compound 606, (S)-5-methyl-N-(3-(1-(thieno[3,2-b]pyridin-6-ylamino)ethyl)phenyl) nicotinamide] | < 300 nM | < 300 nM
5 | CCn1cc2ncc(N[C@@H](C)c3cccc(NC(=O)c4ccc(CN5CCCC5)c(Cl)c4)c3)nc2n1 [Compound 418, (S)-3-chloro-N-(3-(1-((2-ethyl-2H-pyrazolo[3,4-b]pyrazin-6-yl)amino)ethyl)phenyl)-4-(pyrrolidin-1-ylmethyl) benzamide] | < 300 nM | < 300 nM
6 | CCn1cc2ncc(N[C@@H](C)c3cccc(NC(=O)Cc4ccc(C5CCC5)cn4)c3)nc2n1 [Compound 711, (S)-2-(5-cyclobutylpyridin-2-yl)-N-(3-(1-((2-ethyl-2H-pyrazolo[3,4-b]pyrazin-6-yl)amino)ethyl)phenyl)acetamide] | < 300 nM | ≥ 1000 nM
7 | CCn1cc2ncc(N[C@@H](C)c3cccc(NC(=O)Cc4cc(C)c(Cl)cn4)c3)nc2n1 [Compound 695, (S)-2-(5-chloro-4-methylpyridin-2-yl)-N-(3-(1-((2-ethyl-2H-pyrazolo[3,4-b]pyrazin-6-yl)amino)ethyl)phenyl)acetamide] | < 300 nM | 300 to 1000 nM
8 | CCn1cc2ncc(N[C@@H](C)c3cc(NC(=O)Cc4cncc(C)c4)ccc3C)nc2n1 [Compound 666, (S)-N-(3-(1-((2-ethyl-2H-pyrazolo[3,4-b]pyrazin-6-yl)amino)ethyl)-4-methylphenyl)-2-(5-methylpyridin-3-yl) acetamide] | < 300 nM | < 300 nM
9 | CCn1cc2ncc(N[C@@H](C)c3cccc(NC(=O)c4cnc(C5CC5)s4)c3)nc2n1 [Compound 296, (S)-2-cyclopropyl-N-(3-(1-((2-ethyl-2H-pyrazolo[3,4-b]pyrazin-6-yl)amino)ethyl)phenyl)thiazole-5-carboxamide] | < 300 nM | < 300 nM
10 | CCn1cnc2ncc(C(=O)Nc3cccc([C@H](C)Nc4cnc5cnn(C)c5n4)c3)cc21 [Compound 265, (S)-1-ethyl-N-(3-(1-((1-methyl-1H-pyrazolo[3,4-b]pyrazin-6-yl)amino)ethyl)phenyl)-1H-imidazo[4,5-b]pyridine-6-carboxamide] | < 300 nM | < 300 nM
11 | CCn1cc2ncc(N[C@@H](C)c3cccc(NC(=O)c4cnc(C5CCCC5)s4)c3)nc2n1 [Compound 398, (S)-2-cyclopentyl-N-(3-(1-((2-ethyl-2H-pyrazolo[3,4-b]pyrazin-6-yl)amino)ethyl)phenyl)thiazole-5-carboxamide] | < 300 nM | < 300 nM
12 | CCn1cc2ncc(N[C@@H](C)c3cccc(NC(=O)c4ccc(CN5CCOCC5)c(C)c4)c3)nc2n1 [Compound 403, (S)-N-(3-(1-((2-ethyl-2H-pyrazolo[3,4-b]pyrazin-6-yl)amino)ethyl)phenyl)-3-methyl-4-(morpholinomethyl) benzamide] | < 300 nM | < 300 nM
13 | CCn1cc2ncc(N[C@@H](C)c3cc(NC(=O)Cc4ccc5c(n4)CCCC5)ccc3C)nc2n1 [Compound 728, (S)-N-(3-(1-((2-ethyl-2H-pyrazolo[3,4-b]pyrazin-6-yl)amino)ethyl)-4-methylphenyl)-2-(5,6,7,8-tetrahydroquinolin-2-yl)acetamide] | ≥ 1000 nM | ≥ 1000 nM
14 | CCn1cc2ncc(N[C@@H](C)c3cc(NC(=O)Cc4ccc(Cl)cn4)ccc3C)nc2n1 [Compound 657, (S)-2-(5-chloropyridin-2-yl)-N-(3-(1-((2-ethyl-2H-pyrazolo[3,4-b]pyrazin-6-yl)amino)ethyl)-4-methylphenyl)acetamide] | < 300 nM | < 300 nM
15 | CCn1cc2ncc(N[C@@H](C)c3cc(NC(=O)c4cc(F)c(CN5CCOCC5)c(Cl)c4)ccc3C)nc2n1 [Compound 520, (S)-3-chloro-N-(3-(1-((2-ethyl-2H-pyrazolo[3,4-b]pyrazin-6-yl)amino)ethyl)-4-methylphenyl)-5-fluoro-4-(morpholinomethyl) benzamide] | < 300 nM | < 300 nM
16 | Cc1cncc(C(=O)Nc2cccc([C@H](C)Nc3cnc4cnn(-c5ccccc5)c4n3)c2)c1 [Compound 271, (S)-5-methyl-N-(3-(1-((1-phenyl-1H-pyrazolo[3,4-b]pyrazin-6-yl)amino)ethyl)phenyl)nicotinamide] | < 300 nM | < 300 nM
17 | CCn1cc2ncc(N[C@@H](C)c3cc(NC(=O)c4cnc(NC)c(C)c4)ccc3F)nc2n1 [Compound 379, (S)-N-(3-(1-((2-ethyl-2H-pyrazolo[3,4-b]pyrazin-6-yl)amino)ethyl)-4-fluorophenyl)-5-methyl-6-(methylamino) nicotinamide] | < 300 nM | 300 to 1000 nM
18 | CCn1cc2ncc(N[C@@H](C)c3cccc(NC(=O)c4cnc(N5CCN(C)CC5)c(C)c4)c3)nc2n1 [Compound 396, (S)-N-(3-(1-((2-ethyl-2H-pyrazolo[3,4-b]pyrazin-6-yl)amino)ethyl)phenyl)-5-methyl-6-(4-methylpiperazin-1-yl) nicotinamide] | < 300 nM | < 300 nM
19 | CCn1cc2ncc(N[C@@H](C)c3cccc(NC(=O)c4ccc(NC(C)C)c(C)c4)c3)nc2n1 [Compound 405, (S)-N-(3-(1-((2-ethyl-2H-pyrazolo[3,4-b]pyrazin-6-yl)amino)ethyl)phenyl)-4-(isopropylamino)-3-methylbenzamide] | < 300 nM | < 300 nM
20 | CCn1cc2ncc(N[C@@H](C)c3cc(NC(=O)c4ccc(OC5CCN(C)CC5)c(C)c4)ccc3F)nc2n1 [Compound 447, (S)-N-(3-(1-((2-ethyl-2H-pyrazolo[3,4-b]pyrazin-6-yl)amino)ethyl)-4-fluorophenyl)-3-methyl-4-((1-methylpiperidin-4-yl)oxy)benzamide] | < 300 nM | < 300 nM
21 | C[C@H](Nc1cnc2cnn(C)c2n1)c1cccc(NC(=O)Cc2cnn(C)c2)c1 [Compound 629, (S)-2-(1-methyl-1H-pyrazol-4-yl)-N-(3-(1-((1-methyl-1H-pyrazolo[3,4-b]pyrazin-6-yl)amino)ethyl)phenyl)acetamide] | < 300 nM | ≥ 1000 nM
22 | CCn1cc2ncc(N[C@@H](C)c3cccc(NC(=O)Cc4cc(C)c(F)cn4)c3)nc2n1 [Compound 686, (S)-N-(3-(1-((2-ethyl-2H-pyrazolo[3,4-b]pyrazin-6-yl)amino)ethyl)phenyl)-2-(5-fluoro-4-methylpyridin-2-yl) acetamide] | < 300 nM | 300 to 1000 nM
23 | CCn1cc2ncc(N[C@@H](C)c3cc(NC(=O)Cc4cncc(Cl)c4)ccc3F)nc2n1 [Compound 663, (S)-2-(5-chloropyridin-3-yl)-N-(3-(1-((2-ethyl-2H-pyrazolo[3,4-b]pyrazin-6-yl)amino)ethyl)-4-fluorophenyl)acetamide] | < 300 nM | 300 to 1000 nM
24 | CCc1cc2ncc(N[C@@H](C)c3cc(NC(=O)c4ccc(C(F)(F)F)nc4)ccc3F)nc2s1 [Compound 620, (S)-N-(3-(1-((6-ethylthieno[2,3-b]pyrazin-3-yl)amino)ethyl)-4-fluorophenyl)-6-(trifluoromethyl)nicotinamide] | < 300 nM | < 300 nM
25 | CCn1cc2ncc(N[C@@H](C)c3cccc(NC(=O)c4cnc(OC(C)C)c(C)c4)c3)nc2n1 [Compound 327, (S)-N-(3-(1-((2-ethyl-2H-pyrazolo[3,4-b]pyrazin-6-yl)amino)ethyl)phenyl)-6-isopropoxy-5-methylnicotinamide] | < 300 nM | < 300 nM
26 | CCn1cc2ncc(N[C@@H](C)c3cc(NC(=O)Cc4ccccc4F)ccc3C)nc2n1 [Compound 700, (S)-N-(3-(1-((2-ethyl-2H-pyrazolo[3,4-b]pyrazin-6-yl)amino)ethyl)-4-methylphenyl)-2-(2-fluorophenyl)acetamide] | < 300 nM | < 300 nM
27 | Cc1cc(C(=O)Nc2cccc([C@H](C)Nc3cnc4cnn(C)c4n3)c2)ccc1C(=O)OC(C)C [Compound 258, isopropyl (S)-2-methyl-4-((3-(1-((1-methyl-1H-pyrazolo[3,4-b]pyrazin-6-yl)amino)ethyl)phenyl)carbamoyl)benzoate] | < 300 nM | < 300 nM
28 | Cc1cncc(C(=O)Nc2cccc([C@H](C)Nc3cnc4[nH]nc(Br)c4n3)c2)c1 [Compound 549, (S)-N-(3-(1-((3-bromo-1H-pyrazolo[3,4-b]pyrazin-5-yl)amino)ethyl)phenyl)-5-methylnicotinamide] | < 300 nM | < 300 nM
29 | Cc1cc(C(=O)Nc2cccc([C@H](C)Nc3cnc4cnn(C)c4n3)c2)ccc1C(=O)OCc1oc(=O)oc1C [Compound 267, (5-methyl-2-oxo-1,3-dioxol-4-yl)methyl (S)-2-methyl-4-((3-(1-((1-methyl-1H-pyrazolo[3,4-b]pyrazin-6-yl)amino)ethyl)phenyl)carbamoyl)benzoate] | < 300 nM | < 300 nM
